Assay results: US6376546B1, “Biphenyl-5-alkanoic acid derivatives and use thereof” (Asahi Kasei Kabushiki Kaisha, priority 1997, dated 2002)

Key:
[1] = tested on: anti-OVA-IgE antibody production; assay: Suppressive effect on mouse in vivo anti-OVA-IgE antibody production; details: po, 336 h, BALB/c mice immunized with OVA on aluminium hydroxide gel, 100 mg/kg orally once a day for 5 days, serum on day 14, PCA reaction in Wistar rats, read-out: Suppressive rate for IgE antibody production (%)
Description: BALB/c mice, female, 7 weeks old, 7 mice in a group, and 9-11 mice in control group, were used for tests.
Suppressive effect of the compound of the present invention on IgE antibody production was evaluated according to a method described in the reference, Levin and Vaz, International Archives of Allergy and Applied Immunology, 39: 156, 1970. Immunization was performed by intraperitoneally administering aluminium hydroxide gel (4 mg, PIERCE Inc.) adsorbed with egg albumin (OVA; Sigma Inc.) 10 μg in mice. Test compounds were suspended or dissolved in water containing 0.5% carboxymethyl cellulose, and administered orally to test animals, 100 mg/kg, immediately after immunization, once a day for 5 days. Water containing 0.5% carboxymethyl cellulose without addition of test compound was administered to the control group.
On day 14 after the immunization, blood was collected, and passive cutaneous anaphylaxis (PCA) reaction was performed according to the method described in the reference, Ovary et al. International Archives of Allergy and Applied Immunology, 48: 16, 1975, to determine the antibody production. Serum 0.1 ml, which was serially twofold diluted with physiological saline, was injected intracutaneously in the back of Wistar rats, male, 8 weeks old. After 24 hours, 0.5% Evans blue physiological saline solution, which contains OVA 2 mg, 1 ml was injected intravenously to determine the serum boundary concentration of pigment infiltration.
Suppressive rate for IgE antibody production is determined by the following equation.
Suppressive rate for IgE antibody production (%) [formula]

[2] = tested on: immediate type allergic foot-pad reaction; assay: Suppression of mouse in vivo foot-pad reaction; details: BALB/c mice immunized by egg albumin; oral 3-100 mg/kg once a day for 5 days; compared with the positive control
Description: BALB/c mice, female, 7 weeks old, 5 mice in a group for test group and 12-14 mice for control group were used for tests.
Effect of the compounds of the present invention on suppression of mouse in vivo foot-pad reaction is evaluated by the following method.
Mice were immunized by administering intraperitoneally 4 mg of aluminium hydroxide gel, which was adsorbed with OVA 5 μg. Test compounds were suspended or dissolved in water containing 0.5% carboxymethyl cellulose, and were administered to test animals orally at 3-100 mg/kg, once a day, for 5 days, from immediately after immunization. For control groups, water containing 0.5% carboxymethyl cellulose without addition of the test compound was administered.
After 10 days of immunization, OVA 10 μg was injected into the hindlim pads of mice to induce immediate type allergic foot-pad reaction. Control groups were divided into tow groups. The one was injected OVA to induce allergic foot-pad reaction for positive control, and the other was injected physiological saline for negative control. After 30 minutes, foot-pad volume of hidlimb of mice was measured by using Plethysmometer (Unicom Co.) to determine increased rate for comparison before induction of foot-pad reaction.
Suppressive rate for foot-pad reaction is obtained by the following equation.
Suppressive rate for foot-pad reaction (%) [formula]
A: increased rate of foot-pad reaction in positive control group,
B: increased rate of foot-pad reaction in negative control group,
C: increased rate of foot-pad reaction in test group (test compound administered group).

CCCCOc1ccc(CCC(=O)O)cc1-c1ccccc1 [Compound(01), 3-(2-butoxy-1,1′-biphenyl-5-yl)propionic acid]
inhibition in vivo at 100 mg/kg [1]: 72.3%

CCCCCOc1ccc(CCC(=O)O)cc1-c1ccccc1 [Compound(03), 3-(2-pentyloxy-1,1′-biphenyl-5-yl)propionic Acid]
inhibition in vivo at 100 mg/kg [1]: 50.9%

O=C(O)CCc1ccc(OC2CCCC2)c(-c2ccccc2)c1 [Compound(04), 3-(2-cyclopentyloxy-1,1′-biphenyl-5-yl)propionic Acid]
inhibition in vivo at 100 mg/kg [1]: 45.5% | suppressive action against immediate type allergic foot-pad reaction [2]: significant suppressive action

O=C(O)CCc1ccc(OCC2CCCCC2)c(-c2ccccc2)c1 [Compound(07), 3-(2-cyclohexylmethyloxy-1,1′-biphenyl-5-yl)propionic Acid]
inhibition in vivo at 100 mg/kg [1]: 62% | suppressive action against immediate type allergic foot-pad reaction [2]: significant suppressive action

CCC(O)COc1ccc(CCC(=O)O)cc1-c1ccccc1 (centres unmarked) [Compound(08), 3-[2-(2-hydroxybutyloxy)-1,1′-biphenyl-5-yl]propionic acid]
inhibition in vivo at 100 mg/kg [1]: 58.9%

O=C(O)CCc1ccc(OCC(=O)O)c(-c2ccccc2)c1 [Compound(12), 3-(2-carboxymethyloxy-1,1′-biphenyl-5-yl)propionic acid]
inhibition in vivo at 100 mg/kg [1]: 50.8%

CCCCOc1c(NC(C)=O)cc(CCC(=O)O)cc1-c1ccccc1 [Compound(15), 3-(3-acetylamino-2-butoxy-1,1′-biphenyl-5-yl)propionic Acid]
inhibition in vivo at 100 mg/kg [1]: 64.2%

NC(=O)Nc1cc(CCC(=O)O)cc(-c2ccccc2)c1OCC1CCCCC1 [Compound(22), 3-(3-carbamoylamino-2-cyclohexylmethyloxy-1,1′-biphenyl-5-yl)propionic Acid]
inhibition in vivo at 100 mg/kg [1]: 48.1% | suppressive action against immediate type allergic foot-pad reaction [2]: significant suppressive action

O=C(O)CCc1ccc(OCC2CCCCC2)c(-c2ccc(O)cc2)c1 [Compound(25), 3-(2-cyclohexylmethyloxy-4′-hydroxy-1,1′-biphenyl-5-yl)propionic Acid]
inhibition in vivo at 100 mg/kg [1]: 45.5% | suppressive action against immediate type allergic foot-pad reaction [2]: significant suppressive action

CCCCOc1ccc(CCCC(=O)O)cc1-c1ccccc1 [Compound(28), 4-(2-butoxy-1,1′-biphenyl-5-yl)butyric Acid]
inhibition in vivo at 100 mg/kg [1]: 44.5% | suppressive action against immediate type allergic foot-pad reaction [2]: significant suppressive action

CC(C)COc1ccc(CCCC(=O)O)cc1-c1ccccc1 [Compound(29), 4-(2-isobutoxy-1,1′-biphenyl-5-yl)butyric Acid]
inhibition in vivo at 100 mg/kg [1]: 55.7%

CCCCCOc1ccc(CCCC(=O)O)cc1-c1ccccc1 [Compound(31), 4-(2-pentyloxy-1,1′-biphenyl-5-yl)butyric Acid]
inhibition in vivo at 100 mg/kg [1]: 49.8%

O=C(O)CCCc1ccc(OCC(=O)O)c(-c2ccccc2)c1 [Compound(44), 4-(2-carboxymethyloxy-1,1′-biphenyl-5-yl)butyric Acid]
inhibition in vivo at 100 mg/kg [1]: 71.5% | suppressive action against immediate type allergic foot-pad reaction [2]: significant suppressive action

O=C(O)CCCc1ccc(OCCC(=O)O)c(-c2ccccc2)c1 [Compound(45), 4-[2-(2-carboxyethyloxy)-1,1′-biphenyl-5-yl]butyric Acid]
inhibition in vivo at 100 mg/kg [1]: 57%

O=C(O)CCCOc1ccc(CCCC(=O)O)cc1-c1ccccc1 [Compound(46), 4-[2-(3-carboxypropyloxy)-1,1′-biphenyl-5-yl]butyric Acid]
inhibition in vivo at 100 mg/kg [1]: 64.6%

NC(=O)COc1ccc(CCCC(=O)O)cc1-c1ccccc1 [Compound(47), 4-(2-carbamoylmethyloxy-1,1′-biphenyl-5-yl)butyric Acid]
inhibition in vivo at 100 mg/kg [1]: 65.7% | suppressive action against immediate type allergic foot-pad reaction [2]: significant suppressive action

CCCCOc1c(NC(C)=O)cc(CCCC(=O)O)cc1-c1ccccc1 [Compound(52), 4-(3-acetylamino-2-butoxy-1,1′-biphenyl-5-yl)butyric Acid]
inhibition in vivo at 100 mg/kg [1]: 64.2%

CCCCOc1ccc(CCCC(N)=O)cc1-c1ccccc1 [Compound(55), 4-(2-butoxy-1,1′-biphenyl-5-yl)butyramide]
inhibition in vivo at 100 mg/kg [1]: 55.7% | suppressive action against immediate type allergic foot-pad reaction [2]: significant suppressive action

COc1ccc(CCC(=O)O)cc1-c1ccccc1 [Control(1), 3-(2-methoxy-1,1′-biphenyl-5-yl)propionic acid, reference compound]
inhibition in vivo at 100 mg/kg [1]: -14.4%

C=CCOc1ccc(-c2cc(CCC(=O)OC)ccc2OCc2ccccc2)cc1 [Control(2), Methyl 3-(4′-allyloxy-2-benzyloxy-1,1′-biphenyl-5-yl)propionate, reference compound]
inhibition in vivo at 100 mg/kg [1]: -11.6%

CC1(C)CCC(C)(C)c2cc(COc3ccc(C(=O)O)cc3-c3ccccc3)ccc21 [Control(3), [2-(5,6,7,8-tetrahydro-5,5,8,8-tetramethyl-2-naphthalenyl)methyloxy-1,1′-biphenyl-5-yl]carboxylic acid, reference compound]
inhibition in vivo at 100 mg/kg [1]: -2.8%

CC1(C)CCC(C)(C)c2cc(COc3cccc(CCC(=O)O)c3-c3cccc(C(=O)O)c3)ccc21 [Control(4), 3-[3′-carboxy-2-(5,6,7,8-tetrahydro-5,5,8,8-tetramethyl-2-naphthalenyl)methyloxy-1,1′-biphenyl-6-yl]propionic acid, reference compound]
inhibition in vivo at 100 mg/kg [1]: -8.4%

CCCCOc1ccc(CCCC(=O)NCC)cc1-c1ccccc1 [Control(5), N-ethyl-4-(2-butoxy-1,1′-biphenyl-5-yl)butyramide, reference compound]
inhibition in vivo at 100 mg/kg [1]: -2.5%

CCCCOc1ccc(-c2ccccc2)cc1CCCC(=O)O [Control(6), 4-(4-butoxy-1,1′-biphenyl-3-yl)butyric acid, reference compound]
inhibition in vivo at 100 mg/kg [1]: 7.3%
